According to patent publication US9273058B2 (BRISTOL-MYERS SQUIBB COMPANY, priority 2013, dated 2016):
Like-named read-outs stand apart in the source and are kept apart here.

What was measured:
[1] = target: CK1ε (Homo sapiens, UniProt P49674); experiment: CK1ε kinase assay (Caliper LabChip electrophoretic separation of fluoresceinated peptide substrate and product); type: biochemical; conditions: 200 pM CK1ε, 50 μM ATP, 1.5 μM peptide, 22 hours at room temperature
Procedure, shortened: (§1)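 Reactions ran 22 hours at room temperature and were stopped with EDTA. Phosphorylated product and unphosphorylated substrate were then separated electrophoretically. Compounds were tested at eleven concentrations, and IC50 values came from non-linear regression.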

[2] = target: CK1δ (Homo sapiens, UniProt P48730); experiment: CK1δ kinase assay (Caliper LabChip electrophoretic separation of fluoresceinated peptide substrate and product); type: biochemical; conditions: 200 pM CK1δ, 50 μM ATP, 1.5 μM peptide, 22 hours at room temperature
Procedure, shortened: as §1

CK1ε, sequence (P49674 whole entry): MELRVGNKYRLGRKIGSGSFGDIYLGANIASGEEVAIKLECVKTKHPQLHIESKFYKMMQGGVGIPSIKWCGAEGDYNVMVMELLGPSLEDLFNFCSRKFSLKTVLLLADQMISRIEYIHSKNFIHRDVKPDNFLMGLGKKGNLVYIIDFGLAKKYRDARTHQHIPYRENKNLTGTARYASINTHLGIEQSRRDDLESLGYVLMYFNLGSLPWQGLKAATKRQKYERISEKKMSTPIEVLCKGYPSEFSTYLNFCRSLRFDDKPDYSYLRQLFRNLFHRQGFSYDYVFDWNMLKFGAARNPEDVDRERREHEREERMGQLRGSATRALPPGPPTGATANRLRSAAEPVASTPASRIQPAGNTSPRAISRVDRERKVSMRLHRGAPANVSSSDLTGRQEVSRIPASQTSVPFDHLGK
CK1δ, sequence (P48730 whole entry): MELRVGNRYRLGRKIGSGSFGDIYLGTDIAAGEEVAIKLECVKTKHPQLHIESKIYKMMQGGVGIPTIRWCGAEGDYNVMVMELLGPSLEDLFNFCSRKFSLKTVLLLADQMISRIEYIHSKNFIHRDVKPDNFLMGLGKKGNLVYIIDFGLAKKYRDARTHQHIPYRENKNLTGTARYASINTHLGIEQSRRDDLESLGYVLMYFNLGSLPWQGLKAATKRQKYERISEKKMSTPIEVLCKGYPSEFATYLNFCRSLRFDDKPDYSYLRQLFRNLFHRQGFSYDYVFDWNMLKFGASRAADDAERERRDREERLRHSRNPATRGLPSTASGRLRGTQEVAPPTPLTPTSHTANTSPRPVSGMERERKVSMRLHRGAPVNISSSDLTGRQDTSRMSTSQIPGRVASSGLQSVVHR

SMILES	IC50 ([1]; read-out: CK1ε) [nM]	IC50 ([1]; read-out: CK1ε IC50 range) [nM]	IC50 ([2]; read-out: CK1δ) [nM]	IC50 ([2]; read-out: CK1δ IC50 range) [nM]
CC(C)(C)NC(=O)N1CCn2nc(-c3ccc(F)cc3F)c(C(N)=O)c2C1 [Compound 124, N^5-(tert-Butyl)-2-(2,4-difluorophenyl)-6,7-dihydropyrazolo[1,5-a] pyrazine-3,5(4H)-dicarboxamide]	118		172	
CC(C)(C)NC(=O)N1CCn2nc(-c3ccc(F)nc3F)c(C(N)=O)c2C1 [Compound 125, N^5-(tert-Butyl)-2-(2,6-difluoropyridin-3-yl)-6,7-dihydropyrazolo[1,5-a] pyrazine-3,5(4H)-dicarboxamide]		100 to 2000		100 to 2000
CC(C)(C)NC(=O)N1CCn2nc(-c3cccc4ncccc34)c(C(N)=O)c2C1 [Compound 132, N^5-(tert-Butyl)-2-(quinolin-5-yl)-6,7-dihydropyrazolo[1,5-a]pyrazine-3,5(4H)-dicarboxamide]		100 to 2000		100 to 2000
CC(C)(C)NC(=O)N1CCn2nc(-c3cncc4ccccc34)c(C(N)=O)c2C1 [Compound 133, N^5-(tert-Butyl)-2-(isoquinolin-4-yl)-6,7-dihydropyrazolo[1,5-a] pyrazine-3,5(4H)-dicarboxamide]		100 to 2000		100 to 2000
CC(C)(C)NC(=O)N1CCn2nc(-c3cccc4cnccc34)c(C(N)=O)c2C1 [Compound 134, N^5-(tert-Butyl)-2-(isoquinolin-5-yl)-6,7-dihydropyrazolo[1,5-a] pyrazine-3,5(4H)-dicarboxamide]		100 to 2000		100 to 2000
CC(C)(C)NC(=O)N1CCn2nc(-c3cccc(CNS(C)(=O)=O)c3)c(C(N)=O)c2C1 [Compound 135, N^5-(tert-Butyl)-2-(3-(methylsulfonamidomethyl)phenyl)-6,7-dihydropyrazolo [1,5-a]pyrazine-3,5(4H)-dicarboxamide]		100 to 2000		100 to 2000
CC(C)(C)NC(=O)N1CCn2nc(-c3cccc(S(N)(=O)=O)c3)c(C(N)=O)c2C1 [Compound 136, N^5-(tert-Butyl)-2-(3-sulfamoylphenyl)-6,7-dihydropyrazolo[1,5-a] pyrazine-3,5(4H)-dicarboxamide]		100 to 2000		100 to 2000
CC(C)(C)NC(=O)N1CCn2nc(-c3cccc(OC(F)(F)F)c3)c(C(N)=O)c2C1 [Compound 138, N^5-(tert-Butyl)-2-(3-(trifluoromethoxy)phenyl)-6,7-dihydropyrazolo[1,5-a] pyrazine-3,5(4H)-dicarboxamide]		100 to 2000		100 to 2000
CC(C)(C)NC(=O)N1CCn2nc(-c3ccc(F)c(C(F)(F)F)c3)c(C(N)=O)c2C1 [Compound 139, N^5-(tert-Butyl)-2-(4-fluoro-3-(trifluoromethyl)phenyl)-6,7-dihydropyrazolo[1,5-a] pyrazine-3,5(4H)-dicarboxamide]		100 to 2000		10 to 100
CC(C)(C)NC(=O)N1CCn2nc(-c3cc4ccccc4nc3Cl)c(C(N)=O)c2C1 [Compound 140, N^5-(tert-Butyl)-2-(2-chloroquinolin-3-yl)-6,7-dihydropyrazolo[1,5-a] pyrazine-3,5(4H)-dicarboxamide]		100 to 2000		100 to 2000
CC(C)(C)NC(=O)N1CCn2nc(-c3cccc(-c4ccccc4)c3)c(C(N)=O)c2C1 [Compound 141, 2-([1,1′-Biphenyl]-3-yl)-N^5-(tert-butyl)-6,7-dihydropyrazolo[1,5-a] pyrazine-3,5(4H)-dicarboxamide]		100 to 2000		100 to 2000

Now from value to molecule:

IC50 ([1]; read-out: CK1ε) [nM]	IC50 ([1]; read-out: CK1ε IC50 range) [nM]	IC50 ([2]; read-out: CK1δ) [nM]	IC50 ([2]; read-out: CK1δ IC50 range) [nM]	SMILES
43	10 to 100	12.5	10 to 100	CC(C)(C)NC(=O)N1CCn2nc(-c3cccc(C#N)c3)c(C(N)=O)c2C1 [Compound 114, N^5-(tert-Butyl)-2-(3-cyanophenyl)-6,7-dihydropyrazolo[1,5-a] pyrazine-3,5(4H)-dicarboxamide]
	100 to 2000		10 to 100	CC(C)(C)NC(=O)N1CCn2nc(-c3cc(F)cc(C#N)c3)c(C(N)=O)c2C1 [Compound 115, N^5-(tert-Butyl)-2-(3-cyano-5-fluorophenyl)-6,7-dihydropyrazolo[1,5-a] pyrazine-3,5(4H)-dicarboxamide]
79.8	10 to 100	18.2	10 to 100	CC(C)(C)NC(=O)N1CCn2nc(-c3ccccc3)c(C(N)=O)c2C1 [Compound 116, N^5-(tert-Butyl)-2-phenyl-6,7-dihydropyrazolo[1,5-a] pyrazine-3,5(4H)-dicarboxamide]
	100 to 2000		100 to 2000	CC(C)(C)NC(=O)N1CCn2nc(-c3cccc(NS(C)(=O)=O)c3)c(C(N)=O)c2C1 [Compound 118, N^5-(tert-Butyl)-2-(3-(methylsulfonamido)phenyl)-6,7-dihydropyrazolol[1,5-a] pyrazine-3,5(4H)-dicarboxamide]
	100 to 2000		10 to 100	CC(C)(C)NC(=O)N1CCn2nc(-c3cccc(N)c3)c(C(N)=O)c2C1 [Compound 120, 2-(3-Aminophenyl)-N^5-(tert-butyl)-6,7-dihydropyrazolo [1,5-a]pyrazine-3,5(4H)-dicarboxamide]
	100 to 2000		10 to 100	CC(C)(C)NC(=O)N1CCn2nc(-c3ccsc3)c(C(N)=O)c2C1 [Compound 121, N^5-(tert-Butyl)-2-(thiophen-3-yl)-6,7-dihydropyrazolo[1,5-a]pyrazine-3,5(4H)-dicarboxamide]
	100 to 2000		100 to 2000	CC(C)(C)NC(=O)N1CCn2nc(-c3cccc(C(=O)O)c3)c(C(N)=O)c2C1 [Compound 122, 3-(5-(tert-Butylcarbamoyl)-3-carbamoyl-4,5,6,7-tetrahydropyrazolo[1,5-a]pyrazin-2-yl)benzoic acid]
	100 to 2000		10 to 100	CC(C)(C)NC(=O)N1CCn2nc(-c3cccc(C(N)=O)c3)c(C(N)=O)c2C1 [Compound 123, N^5-(tert-Butyl)-2-(3-carbamoylphenyl)-6,7-dihydropyrazolo[1,5-a] pyrazine-3,5(4H)-dicarboxamide]
844	100 to 2000	442	100 to 2000	CC(C)(C)NC(=O)N1CCn2nc(-c3ccncc3)c(C(N)=O)c2C1 [Compound 126, N^5-(tert-Butyl)-2-(pyridin-4-yl)-6,7-dihydropyrazolo[1,5-a]pyrazine-3,5(4H)-dicarboxamide]
444	100 to 2000	357	100 to 2000	CC(C)(C)NC(=O)N1CCn2nc(-c3ccc(C#N)cc3)c(C(N)=O)c2C1 [Compound 127, N^5-(tert-Butyl)-2-(4-cyanophenyl)-6,7-dihydropyrazolo[1,5-a] pyrazine-3,5(4H)-dicarboxamide]
89.5	10 to 100	96.4	10 to 100	CC(C)(C)NC(=O)N1CCn2nc(-c3cccc(Cl)c3Cl)c(C(N)=O)c2C1 [Compound 130, N^5-(tert-Butyl)-2-(2,3-dichlorophenyl)-6,7-dihydropyrazolo[1,5-a] pyrazine-3,5(4H)-dicarboxamide]
	100 to 2000		100 to 2000	CC(C)(C)NC(=O)N1CCn2nc(-c3ccccc3C(N)=O)c(C(N)=O)c2C1 [Compound 131, N^5-(tert-Butyl)-2-(2-carbamoylphenyl)-6,7-dihydropyrazolo[1,5-a] pyrazine-3,5(4H)-dicarboxamide]
